From the CheMixHub viscosity set

Assay: xn = mol fraction of the nth substance listed

Cc1cc(C)cc(C)c1 + CC(C)=O
307.35 K, 101.33 kPa
Conditions | viscosity [mPa·s]
x2 = 0.1387 | 0.541
x2 = 0.4493 | 0.447
x2 = 0.5975 | 0.403
x2 = 0.6567 | 0.383
x2 = 0.7521 | 0.362
x2 = 0.9168 | 0.313

CCC[NH3+].O=[N+]([O-])[O-] + O
298 K, 101 kPa
Conditions | viscosity [mPa·s]
x2 = 0.1 | 50.56
x2 = 0.198 | 34.71
x2 = 0.294 | 24.59
x2 = 0.397 | 16.65
x2 = 0.494 | 11.43
x2 = 0.596 | 7.63
x2 = 0.696 | 5.02
x2 = 0.797 | 3.19
x2 = 0.9 | 1.86
x2 = 0.95 | 1.35

OCCCCO + C[N+](C)(C)CCO.[Cl-]
viscosity [mPa·s]
Conditions | 293.15 K | 298.15 K | 298.2 K | 303.15 K | 308.15 K | 308.2 K | 313.15 K | 318.15 K | 318.2 K | 323.15 K
101 kPa, x2 = 0.2 | – | 70.2 | – | – | – | – | – | 32.3 | – | –
101.3 kPa, x1 = 0.7519 | 112.9 | 87.4 | – | 70.16 | 59.73 | – | 47.89 | 39.53 | – | 33.04
101.3 kPa, x1 = 0.8 | 99.69 | 78.77 | – | 62.96 | 51.08 | – | 41.67 | 34.51 | – | 28.9
101.3 kPa, x1 = 0.8334 | 93.6 | 74.9 | – | 59.28 | 48 | – | 39.41 | 32.5 | – | 27.36
101.3 kPa, x1 = 0.8575 | 91.44 | 72.28 | – | 57.86 | 46.72 | – | 38.31 | 31.67 | – | 26.47
101.3 kPa, x2 = 0.1672 | – | – | 75.5 | – | – | 58.2 | – | – | 42.8 | –
101.3 kPa, x2 = 0.2 | – | – | – | 54.75 | 44.49 | – | 36.66 | 30.4 | – | 25.74
101.3 kPa, x2 = 0.25 | – | – | – | 60.64 | 49.3 | – | 40.55 | 33.94 | – | 28.53

NC(=O)c1ccccc1 + c1ccncc1
298.15 K, 101 kPa
Conditions | viscosity [mPa·s]
x1 = 0.0343 | 1.055
x1 = 0.08504 | 1.331

OCCCCO + NC=O
Conditions | viscosity [mPa·s]
318.15 K, 101 kPa, x2 = 0.1052 | 18.95

CCCCCCCC/C=C\CCCCCCCC(=O)O + CN1CCC[C@H]1c1cccnc1
viscosity [mPa·s], 101 kPa
Conditions | 298.15 K | 323.15 K
x2 = 0.1049 | 74.27 | 22.13
x2 = 0.1989 | 107 | 29.28
x2 = 0.2016 | 108 | 29.56
x2 = 0.2132 | 110.3 | 30.03
x2 = 0.2175 | 110.4 | 30.15
x2 = 0.2346 | 112.3 | 30.48
x2 = 0.2482 | 110.3 | 30.13
x2 = 0.2489 | 110 | 30.12
x2 = 0.2601 | 109.3 | 30.1
x2 = 0.2826 | 105.3 | 28.77
x2 = 0.298 | 102.5 | 28.02
x2 = 0.4102 | 73.48 | 22.19
x2 = 0.4841 | 51.84 | 17.6
x2 = 0.5948 | 34.19 | 12.35
x2 = 0.7031 | 20.12 | 8.136
x2 = 0.7939 | 11.7 | 5.197
x2 = 0.8975 | 7.276 | 3.432

CCC(C)CC + CCCCCCCCCCCCCCCC
298 K, 101.33 kPa
Conditions | viscosity [mPa·s]
x1 = 0.1071 | 2.635
x1 = 0.2084 | 2.224
x1 = 0.3095 | 1.87
x1 = 0.4069 | 1.554
x1 = 0.5054 | 1.274
x1 = 0.6034 | 1.022
x1 = 0.7044 | 0.7813
x1 = 0.8037 | 0.5939
x1 = 0.902 | 0.4194

[Cl-].[Cl-].[Cl-].[Cl-].[Sn+4] + COc1ccccc1
viscosity [mPa·s], 101 kPa
Conditions | x2 = 0.5074 | x2 = 0.6728 | x2 = 0.782 | x2 = 0.8238 | x2 = 0.864 | x2 = 0.9558
293.15 K | 0.932 | 0.958 | 1.01 | 1.04 | 1.07 | 1.1
313.15 K | 0.724 | 0.732 | 0.746 | 0.765 | 0.779 | 0.811

CCCCCC(CC)NC(=O)Nc1ccc(C)c(NC(=O)NC(CC)CCCCC)c1 (stereo not given) + CCCCC
Conditions | viscosity [mPa·s]
293.15 K, 100 kPa, x1 = 0.0002 | 86

Cc1cc(C)cc(C)c1 + CS(C)=O
viscosity [mPa·s], 101.3 kPa
Conditions | x2 = 0.0996 | x2 = 0.1961 | x2 = 0.3046 | x2 = 0.4024 | x2 = 0.5049 | x2 = 0.6057 | x2 = 0.7047 | x2 = 0.8055 | x2 = 0.9018
298.15 K | 0.699 | 0.772 | 0.865 | 1.018 | 1.168 | 1.28 | 1.367 | 1.508 | 1.711
303.15 K | 0.654 | 0.718 | 0.799 | 0.901 | 1.029 | 1.136 | 1.241 | 1.372 | 1.553
308.15 K | 0.616 | 0.674 | 0.747 | 0.831 | 0.935 | 1.036 | 1.135 | 1.266 | 1.42

O=S=O + CCCCCCC
298.15 K, 101 kPa
Conditions | viscosity [mPa·s]
x1 = 0.0265 | 0.3767
x1 = 0.0489 | 0.3719

O=S=O + Cc1cc(C)cc(C)c1
298.15 K, 101 kPa
Conditions | viscosity [mPa·s]
x1 = 0.137 | 0.6381
x1 = 0.223 | 0.6062
x1 = 0.255 | 0.5926

CC(C)Cc1ccccc1 + COC(=O)c1ccccc1
viscosity [mPa·s], 101 kPa
Conditions | x2 = 0.1256 | x2 = 0.2427 | x2 = 0.355 | x2 = 0.4602 | x2 = 0.5572 | x2 = 0.6486 | x2 = 0.7454 | x2 = 0.8333 | x2 = 0.9166
303.15 K | 0.957 | 1.001 | 1.057 | 1.127 | 1.195 | 1.274 | 1.363 | 1.467 | 1.555
313.15 K | 0.824 | 0.862 | 0.908 | 0.961 | 1.011 | 1.075 | 1.145 | 1.215 | 1.288

Cc1cc(C)cc(C)c1 + C1CCCCC1
viscosity [mPa·s], 101 kPa
Conditions | 303 K | 303.15 K | 308.15 K | 313 K | 313.15 K | 318.15 K | 323 K | 323.15 K
x1 = 0.1001 | – | 0.7294 | 0.6779 | – | 0.6321 | 0.591 | – | 0.5529
x1 = 0.1028 | 0.7231 | – | – | 0.6296 | – | – | 0.5473 | –
x1 = 0.2001 | – | 0.6775 | 0.6326 | – | 0.5925 | 0.5562 | – | 0.5229
x1 = 0.2002 | 0.6616 | – | – | 0.5833 | – | – | 0.518 | –
x1 = 0.299 | 0.6393 | – | – | 0.5651 | – | – | 0.5048 | –
x1 = 0.3 | – | 0.6444 | 0.6039 | – | 0.5675 | 0.5341 | – | 0.5036
x1 = 0.396 | 0.6187 | – | – | 0.5553 | – | – | 0.4899 | –
x1 = 0.4 | – | 0.6263 | 0.5881 | – | 0.5539 | 0.5231 | – | 0.4941
x1 = 0.4961 | 0.6085 | – | – | 0.5439 | – | – | 0.4892 | –
x1 = 0.5 | – | 0.6163 | 0.5791 | – | 0.5465 | 0.5165 | – | 0.4886
x1 = 0.5971 | 0.6054 | – | – | 0.54 | – | – | 0.4863 | –
x1 = 0.6 | – | 0.6104 | 0.5748 | – | 0.5431 | 0.5143 | – | 0.4873
x1 = 0.699 | 0.6015 | – | – | 0.5379 | – | – | 0.4853 | –
x1 = 0.7 | – | 0.6099 | 0.5746 | – | 0.5428 | 0.514 | – | 0.4871
x1 = 0.7992 | 0.6055 | – | – | 0.543 | – | – | 0.4858 | –
x1 = 0.8001 | – | 0.6119 | 0.5767 | – | 0.5451 | 0.5165 | – | 0.4904
x1 = 0.8983 | 0.6081 | – | – | 0.543 | – | – | 0.4893 | –
x1 = 0.9 | – | 0.6162 | 0.5819 | – | 0.551 | 0.5223 | – | 0.494
